The subject of series [1] is SARS-CoV-2. Nature of the series: Inhibition of SARS-CoV-2 pseudoparticle entry in Huh-7 cells, assessed by luciferase assay after 72 hrs. The format is functional, Homo sapiens. Particulars: Severe acute respiratory syndrome coronavirus 2, Huh-7, 72 h; for inhibition at 1 µM: CONC 1 uM; for inhibition at 5 µM: CONC 5 uM.
The test system of series [2] is SARS-CoV-2. Put plainly: Inhibition of SARS-CoV-2 pseudoparticle entry in human lung Airway Chip at reported drug Cmax, assessed by qRT-PCR after 48 hrs. The format is functional. Particulars: Severe acute respiratory syndrome coronavirus 2, Lung epithelium. In general terms: Real-time PCR tracks product formation cycle by cycle.
The nature of series [3]: Assessment of cytotoxicity in Huh-7 cells, assessed as % inhibition of cell viability by Celltiter-Glo assay after 48 hrs. The format is toxicity, cell-based. The following applies: human, read-out: Inhibition; for cytotoxicity at 48 h, 1 µM: conc 1 uM; for cytotoxicity at 48 h, 5 µM: conc 5 uM. (In general: In ATP-based viability assays light output follows the ATP content of the culture.)

One may read the inhibition as the percentage by which the read-out fell short of the control. A low value points to a response near the control. Take `COc1ccc(CCN(C)CCCC(C#N)(c2ccc(OC)c(OC)c2)C(C)C)cc1OC` (stereo not drawn): in the series on SARS-CoV-2 [1], the inhibition at 1 µM came to 15% and the inhibition at 5 µM amounted to 50%. This molecule also had an inhibition at 0.81 µM in the series with SARS-CoV-2 [2] (CONC 0.81 uM) of 10%.

As for `CCCCc1oc2ccccc2c1C(=O)c1cc(I)c(OCCN(CC)CC)c(I)c1` [AMIODARONE], in the series on SARS-CoV-2 [1], the inhibition at 1 µM is 55% and the inhibition at 5 µM worked out at 70%. The inhibition at 20.04 µM in the series on SARS-CoV-2 [2] (CONC 20.04 uM) came to 20%. Besides, in series [3], the cytotoxicity at 48 h, 1 µM was determined as 1% and the cytotoxicity at 48 h, 5 µM was 2%.

For the molecule `CCN(CC)Cc1cc(Nc2ccnc3cc(Cl)ccc23)ccc1O` [AMODIAQUINE], in the series on SARS-CoV-2 [1], the inhibition at 1 µM came out at 70% and the inhibition at 5 µM was 90%. This molecule also returned an inhibition at 1.24 µM with SARS-CoV-2 [2] (CONC 1.24 uM) of 60%. In series [3], the cytotoxicity at 48 h, 1 µM amounted to 1% and the cytotoxicity at 48 h, 5 µM was -5%.

With `CCN(CC)CCCC(C)Nc1ccnc2cc(Cl)ccc12` (stereo not drawn) [CHLOROQUINE], in the series with SARS-CoV-2 [1], at 1 µM the inhibition was 50% and testing at 5 µM gave an inhibition of 85%. Besides, testing at 1.91 µM in the series with SARS-CoV-2 [2] (CONC 1.91 uM) gave an inhibition of 10%. Also, in series [3], the cytotoxicity at 48 h, 1 µM was determined as 2% and the cytotoxicity at 48 h, 5 µM came out at 3%.

Turning to `CCN(CC)CCOc1ccc(C(=C(Cl)c2ccccc2)c2ccccc2)cc1` [CLOMIPHENE], in the series with SARS-CoV-2 [1], the inhibition at 1 µM came to 60% and testing at 5 µM gave an inhibition of 80%. Further, the inhibition at 0.83 µM with SARS-CoV-2 [2] (CONC 0.83 uM) was 30%. Also, in series [3], the cytotoxicity at 48 h, 1 µM was determined as 2% and the cytotoxicity at 48 h, 5 µM was 12%.

As to `CN(C)CCOc1ccc(/C(=C(/CCCl)c2ccccc2)c2ccccc2)cc1` [TOREMIFENE], in the series with SARS-CoV-2 [1], the inhibition at 1 µM came to 30% and 5 µM produced 65% inhibition. This molecule also showed an inhibition at 2.98 µM in the series with SARS-CoV-2 [2] (CONC 2.98 uM) of 50%. Further, in series [3], the cytotoxicity at 48 h, 1 µM turned out to be 1% and the cytotoxicity at 48 h, 5 µM worked out at 10%.

For the molecule `CCOC(=O)c1c(CSc2ccccc2)n(C)c2cc(Br)c(O)c(CN(C)C)c12` [UMIFENOVIR], in the series with SARS-CoV-2 [1], the inhibition at 1 µM stood at 5% and the inhibition at 5 µM amounted to 75%. Moreover, in the series on SARS-CoV-2 [2] (CONC 3.89 uM), the inhibition at 3.89 µM is 20%. Further, in series [3], the cytotoxicity at 48 h, 1 µM was found to be 1% and the cytotoxicity at 48 h, 5 µM turned out to be 10%.
